Columns and labels:
[1] = system: Rhizoctonia solani (damping-off of cucumber); test: Exterminating test on damping-off of cucumber (Experimental Example 3); format: in vivo; conditions: soil drench 50 ml per pot, 10 days
Method: Exterminating test on damping-off of cucumber
The pots (diameter, 12 cm) were filled with field soil and then soil infected by adding Rhizoctonia solani in an amount of 5 grams per pot uniformly into the pots. Thereafter, 10 seeds of cucumber (variety: Azumamidori) were sown in each pot.
Eighty percent (80%) wettable powder of the present invention was diluted with water to obtain a suspension and each pot was drenched with the suspension in an amount of 50 milliliters. Then, the pots were transferred to the greenhouse. Fifty percent (50%) wettable powder of pentachloronitro benzene (hereinafter referred to as PCNB) on the market was used as a control and tested by the same method. After 10 days of the inoculation, degrees attacked by the pathogen were observed and a "Percentage of healthy seedlings" was calculated. The "Percentage of healthy seedlings" was calculated as follows: [formula]

Escherichia coli = test: Minimum inhibitory concentration, dilution methods (Example 14); format: cell-based; conditions: (3) glucose bouillon medium dilution method
Description: (§1) Bacteriocidal activity and fungicidal activity of the active compounds of the present invention were examined by potato-dextrose agar dilution method, [2] waxman's liquid medium dilution method or [3] glucose bouillon medium dilution method. The results are shown in Table 4 below as the minimum inhibitory concentration (the minimum concentration of active compound found to produce 100% control of the test bacteria and fungi).

Staphylococcus aureus = test: as above; format: cell-based; conditions: (3) glucose bouillon medium dilution method
Description: as §1

Cladosporium harbarum = test: as above; format: cell-based; conditions: (1) potato-dextrose agar dilution method
Description: as §1

Bacillus subtilis [2] = test: as above; format: cell-based; conditions: (3) glucose bouillon medium dilution method
Description: as §1

Aspergillus niger [3] = test: as above; format: cell-based; conditions: (1) potato-dextrose agar dilution method
Description: as §1

Penicillium Citrinum [4] = test: as above; format: cell-based; conditions: (1) potato-dextrose agar dilution method
Description: as §1

[5] = system: Aspergillus niger, Penicillium citrinum, Cladosporium harbarum and chaetomium globosum; test: Degree of growth inhibition of fungi on treated beach plates (Example 17); format: cell-based; design: scale not given here; conditions: numerical rating, 2 weeks
Method: The emulsifiable concentrates which were prepared by Example 10 were diluted with water 400 times and 800 times to form emulsions.
(§2) The square plates of beach of which a side was 5 cm long and thickness was 5 mm were dipped into the emulsion for 2 minutes and dried for 24 hours at room temperature.
(§3) The square plates were placed on the surface of agar plates. The suspensions which contained spores of Aspergillus niger, Penicillium citrinum, Cladosporium harbarum and chaetomium globosum were respectively sprayed on the agar plates and the square plates.
The test fungi were cultivated in the incubator at the humidity of 95% and the temperature of 28° C for 2 weeks.
The degree of growth inhibition is defined in terms of the following numerical ratings.

[6] = system: Xanthomonas citri (citrus canker); test: Exterminating test on citrus canker (Experimental Example 6); format: in vivo
Method: (§4) Exterminating test on citrus canker. 4-year-old summer orange seedlings, planted in unglazed pots having a diameter of 20 cm, were employed in this test. Eighty percent (80%) wettable powder of the present invention was diluted with water, and sprayed over the seedlings in an amount of 50 ml per pot. The leaves of the seedlings were inoculated Xanthomonas citri by means of a needle. After the inoculation, the seedlings were maintained in a moist chamber at 25° C for 24 hours. Then the pots were transferred into the greenhouse. Streptomycin 20% wettable powder was used as a control, and tested by the same method. After 2 weeks after the inoculation, degrees of disease attack were observed, and an "Effect Index" was calculated as follows: [formula]

summer orange seedlings = test: Phytotoxicity on summer orange seedlings (Experimental Example 6); format: in vivo; conditions: 1,000 ppm
Method: as §4

[7] = system: Fusarium wilt of cucumber; test: Exterminating test on Fusarium wilt of cucumber (Experimental Example 4); format: in vivo, Fusarium oxysporum f, cucumerinum; conditions: 500 ppm, soil drench 100 ml per pot, two weeks
Method: Exterminating test on Fusarium wilt of cucumber Twenty (20) grams of infected soil was added uniformly into each pot which was filled with steam sterilized field soil, then 18 seeds of cucumber (variety; Tokiwazibai) were sowed in each pot. Eighty percent (80%) wettable powder of the present invention was diluted with water to obtain a suspension, and each pot was drenched with the suspension in an amount of 100 ml. Fifty percent (50%) wettable powder of methyl-1-(butylcarbamoyl) 2-benzimidazol carbamate (hereinafter referred to as Benlate) on the market was used as a control and tested by the same method. After two weeks of planting, degrees attacked by the pathogen was observed and a "percentage of healthy seedlings" was calculated as follows: [formula]

[8] = system: seedling blight of rice plant (pathogen Fusarium sp. and Rhizoctonia sp.); test: Exterminating test on seedling blight of rice plant (Experimental Example 1); format: in vivo; conditions: soil, 408 h, 0.25g/box a.i., 5% dust mixed with soil; read-out: Percentage of healthy seedlings
Method: Exterminating test on seedling blight of rice plant Nursery boxes (60 × 30 × 3 cm) were filled with soil which were contaminated with pathogen (Fusarium sp. and Rhizoctonia sp.) The dust in which the present compound was contained in a ratio of 5% by weight was added in the box in a ratio of 5 grams per box and mixed well with soil. Thereafter, seeds of rice plant (variety: Nihonbare) were sowed in drills at a rate of 0.3 liter per box and grown up in a lighting chamber at 17° C. After 7 days from the sowing, the boxes were carried out in the field. Furthermore, 10 days thereafter the observations were made. Four percent (4%) dust of 3-hydroxy-5-methyl isoxazol (hereinafter referred to as hydroxyisoxazol) on the market was used as a control and tested by the same method. The test results are shown in Table 2 with a "percentage of healthy seedlings". The percentage of healthy seedlings was calculated as follows: […]

[9] = system: Aspergillus niger, Penicillium citrinum, Cladosporium harbarum and chaetomium globosum; test: Degree of growth inhibition of fungi on treated beach plates (Example 25); format: cell-based; design: scale not given here; conditions: numerical rating, 2 weeks
Method: The emulsifiable concentrates which were prepared by Example 20 were diluted with water 400 times and 800 times to form emulsions.
as §2, §3
The test fungi were cultivated in the incubator at the humidity of 95% and the temperature of 28° C for 2 weeks. The degree of growth inhibition is defined in terms of the following numerical ratings.

green algae = test: Degree of propagation on slime test boards (Example 27); format: cell-based; conditions: same method, shaking culture for 2 days
Method: (§5) Zero point zero two (0.02) part of active compounds in the form of 10% water soluble concentrate which was prepared by Example 23 was added into 100 parts of Waxman's liquid medium. Peices of Wood iron (hereafter referred to as the slime test boards) were soaked into the Waxman's liquid medium. The bacteria which were gathered from circular water system were inoculated upon the Waxman's liquid medium and incubated at 27°-34° C by shaking culture for 2 days. The degree of propagation of the bacteria on the slime test boards was examined.
(§6) Thegrowth-inhibiting activity of active compounds against the fungi and the green algae was also examined by the same method as mentioned above.
(§7) The degree of propagation of the bacteria, fungi or green algae on the test boards is defined in terms of the following symbols.

fungi = test: as above; format: cell-based; conditions: same method, shaking culture for 2 days
Method: as §5, §6, §7

[10] = system: bacteria gathered from circular water system; test: as above; format: cell-based; conditions: shaking culture for 2 days
Method: as §5, §6, §7

Bacillus subtilis [11] = test: Region of growth-inhibition around treated cotton cloth (Example 26); format: cell-based; conditions: emulsifiable concentrate diluted 100 times
Method: (§8) The emulsifiable concentrates which were prepared by Example 20 were diluted with water 100 times to form an emulsion. A cloth of cotton was soaked into each emulsion for 2 minutes. The clothes were dried at room temperature and cut into a square of which a side was 1 cm long. Each kind of test bacteria and fungi was inoculated, separately, on plates of potato-agar and one square cloth placed on each of such plates. Test bacteria and fungi were cultivated at 28° C for 4 days. The width of the region of growth-inhibition which was formed a circumference of the cloth was measured.

Staphylococcus oureus = test: as above; format: cell-based; conditions: emulsifiable concentrate diluted 100 times
Method: as §8

Aspergillus niger [12] = test: as above; format: cell-based; conditions: emulsifiable concentrate diluted 100 times
Method: as §8

Penicillium Citrinum [13] = test: as above; format: cell-based; conditions: emulsifiable concentrate diluted 100 times
Method: as §8

[14] = system: botrytis cinerea (gray mold); test: Exterminating test on gray mold of tomato (Experimental Example 5); format: in vivo; design: scale not given here; conditions: 1,000 ppm, 48 hours after inoculation, kidney bean leaves
Method: Exterminating test on gray mold of tomato The seedlings of kidney beans (variety: Orient) of 5-6 leaves stage were employed in this test. Eighty percent (80%) wettable powder of the present invention was diluted with water and sprayed over the seedlings in an amount of 10 ml per pot. The leaves were cut from the plant at 24 hours after spraying, and placed in the petri dishes (12 cm in diameter). Thereafter disks (5 mm in diameter) were cut with a cork borer from potato dextrose agar on which the pathogen (botrytis cinerea) was cultured. The disks were placed on the leaves. The dishes were placed in such a moistural condition as to cause the pathogen to propagate. Thiophanate methyl 70% wettable powder on the market was used as a control and tested by the same method. After forty eight (48) hours after inoculation, diameters of the lesions were observed, and an "Effect Index" was calculated as follows; [formula]

[15] = system: Cladosporium cucumerinum (cucumber scab); test: Exterminating test on cucumber scab (Experimental Example 2); format: in vivo; design: scale not given here; conditions: 500 ppm, 5 days after inoculation
Method: Exterminating test on cucumber scab
(§9) The cucumber seeds (variety: Sagamihanjiro) were sown in pots (diameter 18 cm). Eighty percent (80%) wettable powder (contents of active compound: 80%) of the present invention was diluted with water to obtain a suspension. The suspension was sprayed over the cucumber seedlings of the stage of 3-4 leaves in an amount of 20 ml per pot. After 24 hours, these pots were inoculated by means of spray of spore suspension of Cladosporium cucumerinum. The thus-inoculated seedlings were placed in a moist chamber at 20° C for 24 hours. The pots were continuously kept in a greenhouse at 20° C. The following wettable powders on the market were used as controls.
70% wettable powder of 1,2-bis (3-methoxy carbonyl-2-thioureid) benzene (hereinafter referred to as "thiophanate methyl") on the market.
75% wettable powder of ethylene bis (dithiocarbamic acid) manganese (hereinafter referred to as "maneb") on the market. After 5 days of the inoculation, degrees attached by the pathogen were observed and the results were shown in Table 3 with an "Infected Index". The "Infected Index" was calculated as follows: [formula] A : Number of leaves which were killed by hard attack B : Number of leaves severely attacked
C : number of leaves slightly attacked
D : number of healthy leaves

[16] = system: seedlings of kidney beans (variety: Orient); test: Phytotoxicity on kidney beans (Experimental Example 5); format: in vivo; conditions: 1,000 ppm
[17] = system: cucumber seedlings (variety: Sagamihanjiro); test: Phytotoxicity on cucumber seedlings (Experimental Example 2); format: in vivo; conditions: 500 ppm
Method: as §9

SMILES | Phytotoxicity (summer orange seedlings) | Percentage of healthy seedlings at 0.25 g/box [8] [%] | Degree of growth inhibition ([9]; 0.0125 %) | Degree of growth inhibition ([9]; 0.025 %) | Degree of propagation (green algae) | Degree of propagation (fungi) | Degree of propagation [10] | width of the region of growth-inhibition (Bacillus subtilis [11]) [mm] | width of the region of growth-inhibition (Staphylococcus oureus) [mm] | width of the region of growth-inhibition (Aspergillus niger [12]) [mm] | width of the region of growth-inhibition (Penicillium Citrinum [13]) [mm] | also measured
O=C(NC=C(Cl)Cl)c1ccccc1[O-].O=C(NC=C(Cl)Cl)c1ccccc1[O-].[Cu+2] [compound 26] | Nil |  |  |  |  |  |  |  |  |  |  | Percentage of healthy seedlings ([1]; 1,000 ppm): 100%; minimum inhibitory concentration (Escherichia coli): 60 mc g/ml; minimum inhibitory concentration (Staphylococcus aureus): 5 mc g/ml; minimum inhibitory concentration (Cladosporium harbarum): 5 mc g/ml; minimum inhibitory concentration (Bacillus subtilis [2]): 5 mc g/ml; minimum inhibitory concentration (Aspergillus niger [3]): 10 mc g/ml; minimum inhibitory concentration (Penicillium Citrinum [4]): 10 mc g/ml; Degree of growth inhibition ([5]; 0.0125 %): 3; Degree of growth inhibition ([5]; 0.025 %): 3; Effect Index ([6]; 1,000 ppm, 2 weeks after inoculation): 47.5; Percentage of healthy seedlings [7]: 58.0%
O=C(CCl)Oc1ccccc1C(=O)NC=C(Cl)Cl [compound 13] | Nil | 62 | 2 | 3 | - | - | - | 7 | 6 | 6 | 7 | pest or weed control at 1000 ppm ([1]; Rhizoctonia solani, soil, 240 h, 1,000 ppm, read-out: Percentage of healthy seedlings): 100%; pest or weed control at 1000 ppm ([6]; Xanthomonas citri, 336 h, read-out: Effect Index, 1,000 ppm, 2 weeks after inoculation): 67.3%; pest or weed control at 500 ppm ([7]; Fusarium, soil, 336 h, read-out: Percentage of healthy seedlings): 70.5%
O=C(NC=C(Cl)Cl)c1cc(Cl)ccc1O [Compound No. 2, N-(2',2'-dichlorovinyl)-5-chlorosalicylamide] | Nil | 72.4 | 2 | 3 | - | - | - | 9 | 10 | 5 | 5 | Effect Index [14]: 79; Infected Index [15]: 11.0; Phytotoxicity [16]: Nil; Phytotoxicity [17]: Nil

— US4055640A, “Compositions and methods for controlling the growth of bacteria, fungi and algae using certain derivatives of N-(2,2-dichlorovinyl)salicylamides” (Nippon Kayaku Co., Ltd., priority 1975, dated 1977)
